Data taken from patent publication US20250084095A1, “Aminopyrimidine Derivatives as Cyclin-Dependent Kinase Inhibitors” (Accutar Biotechnology Inc., priority 2023, published 2025).

Tests used:
[1] = tested on: Phospho-Rb (Ser807/811) in SW1573-CDK6 KO cells; assay: Phospho-Rb expression inhibition in SW1573-CDK6 KO cells quantified by in cell Western; type: cell-based; conditions: Homo sapiens, 24 hours, read-out: SW1573 CDK6 KO pRb IC50
In short: (§1)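 CRISPR CDK4- or CDK6-knockout SW1573 clones were seeded at 20,000 cells/well overnight, then exposed to compound (0.1% DMSO from 1000× stocks) for 24 h at 37° C in 10% FBS medium. Fixed, methanol-permeabilized cells were co-stained for phospho-Rb Ser807/811 and total Rb, with near-infrared in-cell Western read-out.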

[2] = tested on: Phospho-Rb (Ser807/811) in SW1573-CDK4 KO cells; assay: Phospho-Rb expression inhibition in SW1573-CDK4 KO cells quantified by in cell Western; type: cell-based; conditions: Homo sapiens, 24 hours, read-out: SW1573 CDK4 KO pRb IC50
In short: as §1

IC50 [1] | IC50 [2] | Compound
40 to 150 nM | > 1000 nM | CNCc1c(C)c(=O)c2ccc(-c3nc(N[C@@H]4C[C@H]5CO[C@H](O5)[C@H]4O)ncc3F)cc2n1C(C)C [Compound 194, 7-(5-fluoro-2-(((1S,3R,4S,5R)-4-hydroxy-6,8-dioxabicyclo[3.2.1]octan-3-yl)amino)pyrimidin-4-yl)-1-isopropyl-3-methyl-2-((methylamino)methyl)quinolin-4(1H)-one]
≤ 40 nM | > 1000 nM | Cc1nc2c(F)cc(-c3nc(N[C@@H]4C[C@H]5CO[C@H](O5)[C@H]4O)ncc3Cl)cc2n1C(C)C [Compound 25, (1S,3R,4S,5R)-3-((5-chloro-4-(4-fluoro-1-isopropyl-2-methyl-1H-benzo[d]imidazol-6-yl)pyrimidin-2-yl)amino)-6,8-dioxabicyclo[3.2.1]octan-4-ol]
150 to 1000 nM | > 1000 nM | CC(C)n1c([C@H]2CCOC2)nc2c(F)cc(-c3nc(N[C@@H]4C[C@H]5CO[C@H](O5)[C@H]4O)ncc3F)cc21 [Compound 269, (1S,3R,4S,5R)-3-((5-fluoro-4-(4-fluoro-1-isopropyl-2-((R)-tetrahydrofuran-3-yl)-1H-benzo[d]imidazol-6-yl)pyrimidin-2-yl)amino)-6,8-dioxabicyclo[3.2.1]octan-4-ol]
≤ 40 nM | 150 to 1000 nM | CCn1cc(C(C)C)c2sc(-c3nc(N[C@@H]4C[C@H]5CO[C@H](O5)[C@H]4O)ncc3Cl)c(C)c2c1=O [Compound 230, 5-ethyl-2-(5-chloro-2-(((1S,3R,4S,5R)-4-hydroxy-6,8-dioxabicyclo[3.2.1]octan-3-yl)amino)pyrimidin-4-yl)-7-isopropyl-3-methylthieno[3,2-c]pyridin-4(5H)-one]
40 to 150 nM | > 1000 nM | CC(C)n1c([C@@H]2CCOC2)nc2c(F)cc(-c3nc(N[C@@H]4C[C@H]5CO[C@H](O5)[C@H]4O)ncc3F)cc21 [Compound 270, (1S,3R,4S,5R)-3-((5-fluoro-4-(4-fluoro-1-isopropyl-2-((S)-tetrahydrofuran-3-yl)-1H-benzo[d]imidazol-6-yl)pyrimidin-2-yl)amino)-6,8-dioxabicyclo[3.2.1]octan-4-ol]
